This is an account of results in patent US20220325173A1, “RNA FLUORESCENT PROBE FOR RAPIDLY DISTINGUISHING CANCER TISSUE FROM NORMAL TISSUE BASED ON NUCLEOLAR MORPHOLOGICAL CHANGES” (SHANDONG UNIVERSITY, priority 2020, published 2022).

Test [1] relates to cytoplasmic RNA and nucleoli in SiHa cells. Description: Staining live SiHa cells with CAPY-AP, confocal laser scanning microscopy. The following applies: 5 μM CAPY-AP, 30 min, 488 nm laser, green channel 500-600 nm. It is filed as cell-based. Here is the method: Obtaining method: the SiHa cells are incubated with CAPY-AP for 30 min, and then the cells are irradiated with a 488 nm laser under a confocal laser scanning microscope to obtain micrographs. FIG. 1a is the image of green channel at 500-600 nm from CAPY-AP excited by the 488 nm laser. FIG. 1B is a differential interference contrast (DIC) micrograph scanned by a bright field laser. FIG. 1c is the merge image of FIG. 1a and FIG. 1b.
SiHa cells were cultured in adherent conditions in a culture media containing 10% fetal bovine serum and incubated in a 37° C. and 5% CO2 saturated humidity incubator. The culture media was replaced every 2-3 days for passage once. […]
First, DMSO solution of a 5 mM CAPY-AP was prepared as a stock solution. […] After staining, the cover glass with cells was taken out, excess probes were washed off, the cover glass with the cell growth side facing down covers a glass slide, and the staining locations, fluorescence distribution and brightness changes of the cells were observed under a confocal laser scanning microscope (the cells were irradiated with a 488 nm laser).

A further test has as its system RNA in SiHa cells. Briefly: RNase digestion assay: staining of RNase-treated fixed SiHa cells with CAPY-AP. It is filed as cell-based. The conditions noted are these: RNase 25 μg/mL 2 hours, then 5 μM CAPY-AP 30 min, 488 nm laser, green channel 500-600 nm. The text has this:
Obtaining method: the fixed SiHa cells treated with RNase and then stained with CAPY-AP. Under the confocal laser scanning microscope, the cells are irradiated with the 488 nm laser to obtain micrographs. FIG. 2a is the image of a green channel at 500-600 nm from CAPY-AP excited by the 488 nm laser. FIG. 2b is a differential interference contrast (DIC) micrograph scanned by a bright field laser. FIG. 2c is the merge image of FIG. 2a and FIG. 2b.
Preparation of fixed cells: first, the cover glass covered with the SiHa cells prepared in Example 2 was immersed in a 4% paraformaldehyde solution for 30 min, and then 0.5%
Triton X-100 was used for permeation at room temperature for 2 min to obtain the fixed cells.
A group of the above fixed cells was taken out and digested in an incubator for 2 hours after RNase with a 25 μg/mL concentration was added, then washed with PBS 3 times and stained with a 5 μM CAPY-AP in a CO2 incubator for 30 min. The cover glass with stained cells was taken out, excess dyes were washed off, the cover glass with a cell growth side facing down covers a glass slide, and the staining locations, fluorescence distribution and brightness changes of the cells were observed under a confocal laser scanning microscope (the cells were irradiated with a 488 nm laser) and recorded.

Test [2] deals with cytoplasmic RNA and nucleoli in human mammary cancer tissue and normal mammary tissue. Briefly: Fluorescence staining of frozen sections of human mammary cancer tissue and its adjacent normal tissue.
Excerpt: Obtaining method: after the frozen sections of human mammary cancer tissue and its adjacent normal tissue are stained with CAPY-AP and Hoechst 33342, the tissue is irradiated with 488 nm and 405 nm lasers respectively under the confocal laser scanning microscope, and superposition images of two channels (blue channel: 420-450 nm, green channel: 500-600 nm) are obtained. The frozen sections of the same tissue are stained with H&E to obtain H&E staining images. Amongst, the enlarged images come from two box regions of fluorescent staining images of mammary cancer tissue.
(§1) The frozen sections of the mammary cancer tissue and its adjacent normal tissue from intraoperative pathological samples of breast cancer patients (Pathology No. 57977.18) were obtained from the department of pathology, Qilu Hospital of Shandong University. In order to stain, the frozen sections were immersed into a 10% EtOH PBS buffer solution with a 10 μM CAPY-AP and a 10 μM Hoechst 33342 for 10 min, and then observed under a confocal laser scanning microscope (the tissue was irradiated with 488 nm and 405 nm lasers respectively) to obtain fluorescence images. The fluorescence images were compared with the corresponding H&E images.
as §1, with “60551.18)” for “57977.18)”
as §1, with “61864.18)” for “57977.18)”

[3] abbreviates: 10 μM CAPY-AP with 10 μM Hoechst 33342, 10% EtOH PBS, 10 min, 488 nm and 405 nm lasers.

In the case of `CCn1c2ccccc2c2cc(/C=C/c3cc[n+](CCCN)cc3)ccc21` [CAPY-AP, (E)-1-(3-aminopropyl)-4-(2-(9-ethyl-9H-carbazol-3-yl)vinyl)pyridine-1-ium dibromide], the “staining locations and fluorescence distribution in live SiHa cells (FIG. 1)” value in test [1] is “obvious green light distribution in cytoplasmic and nucleolar areas”. In addition, the “fluorescence of fixed SiHa cells after RNase treatment (FIG. 2)” value in the test with RNA in SiHa cells was “fluorescence in the nucleoli and cytoplasm is almost invisible”. Moreover, in test [2] (setting [3]), the “fluorescence distribution in frozen sections, Pathology No. 57977.18 (FIG. 3)” value was “obvious green light distribution in cytoplasmic and nucleolar areas, while no fluorescence exists in extracellular matrices”; the “imaging of cytoplasmic RNA and nucleoli in frozen sections, Pathology No. 60551.18 (FIG. 4)” value was “can specifically image the cytoplasmic RNA and nucleoli in the frozen sections of the human mammary pathological tissue”; the “imaging of cytoplasmic RNA and nucleoli in frozen sections, Pathology No. 61864.18 (FIG. 5)” value was “can specifically image the cytoplasmic RNA and nucleoli in the frozen sections of the human mammary pathological tissue”. In addition, the “imaging of cytoplasmic RNA and nucleoli in frozen sections, summary of FIG. 3, FIG. 4 and FIG. 5” value in test [2] (three pathology samples together, CAPY-AP and Hoechst 33342) was “can specifically image the cytoplasmic RNA and nucleoli in frozen sections of human mammary pathological tissue”.
